Earlier results, collected in patent publication US20240307296A1, “SUBCUTANEOUS BIODEGRADABLE NALTREXONE IMPLANT AND ACCOMPANYING BEHAVIORAL PROGRAM FOR WEIGHT LOSS IN A PATIENT” (Biocorrx, priority 2017, published 2024).

Tested on: fasting insulin levels
Conditions: in vivo

## O=C1CC[C@@]2(O)[C@H]3Cc4ccc(O)c5c4[C@@]2(CCN3CC2CC2)[C@H]1O5 [Naltrexone, N-Cyclopropylmethylnoroxymorphone]
  Lowering of fasting insulin levels: up to 40%
